Test results from the supplement of paper PMC5412046.

System: SB.mhdgc-1
Test: AC50 for growth inhibition (viability) (log10 M); higher = less potent
Conditions: SB.mhdgc-1 (hereditary c.1380delA CDH1 gastric cancer)
Outline: (§1)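 A four-parameter fit of viability, normalised to DMSO, gave the log half-maximal activity concentration, and only high-quality curve classes were kept. Cells came from hereditary or sporadic gastric cancer patients, 500 per 1536 well, and were dosed for 48 h at 11 threefold dilutions from a final 46 μM. Readout was CellTiter-Glo luminescence on a ViewLux.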

Structure (SMILES) | AC50 for growth inhibition (log10 M)
Cc1c(C(=O)Nc2cccc(C(F)(F)F)c2)cc(-c2ccccc2)n1CCCN1CCOCC1 | -4.78
c1ccc(CCCN2CCN(CCOC(c3ccccc3)c3ccccc3)CC2)cc1 | -4.73
CC[C@H](C)[N]1C=C(C)C2=C1C=C(C=C2C(=O)NC\C3=C(C)\C=C(\C)NC3=O)C4=CC=C(N=C4)N5CCNCC5 [GSK126] | -5.03
O=C1\C=C/C=C2/[C@H]3CNC[C@H](C3)CN12 [Cytisine] | -6.03
COc1cc([C@@H]2c3cc4c(cc3[C@@H](O[C@@H]3O[C@@H]5CO[C@@H](c6cccs6)O[C@H]5[C@H](O)[C@H]3O)[C@H]3COC(=O)[C@H]23)OCO4)cc(OC)c1O [Teniposide] | -7.13
COc1cc2c(Oc3ccc(NC(=O)C4(C(=O)Nc5ccc(F)cc5)CC4)cc3F)ccnc2cc1OCCCN1CCOCC1 [Foretinib] | -4.83
Cc1cc(Nc2nc(N[C@@H](C)c3ccc(F)cc3)c(C#N)cc2F)n[nH]1 [AZ-960] | -4.73
N#Cc1ccc(COC[C@H]2O[C@@H](n3c(NCc4ccc(Cl)c(Cl)c4)nc4c(N)ncnc43)[C@H](O)[C@@H]2O)cc1 | -4.93
O=C(Nc1cccc(Nc2ncc(Br)c(NCCc3cnc[nH]3)n2)c1)N1CCCC1 [BX-912] | -4.98
COc1cc2ncnc(Nc3cccc(Br)c3)c2cc1OC | -7.08
C[S+](=O)([O-])Oc1ccc2c(NC(N)=O)c(C(=O)c3ccc(Cl)cc3Cl)oc2c1 [Lirimilast] | -6.08
CN(CC(=O)N(Cc1ccc(C2CCCCC2)cc1)c1ccc(C(=O)O)c(O)c1)[S+](=O)([O-])c1c(F)c(F)c(F)c(F)c1F [BP-1-102] | -4.58
Cc1cc(C[S+](=O)([O-])c2ccccc2)cc(OCc2ccc(CN3CCC[C@@H]3CO)cc2)c1 [PF-543] | -4.78
CN(C)CCN1C(=O)c2cccc3cc(N)cc(c23)C1=O [Amonafide] | -5.68
N=C1S/C(=C\c2ccc(-c3ccc4c(c3)C(=O)NC4=O)o2)C(=O)N1c1ccc(Br)cc1 [Bioymifi] | -5.28
C#C[C@]1(O)CC[C@H]2[C@@H]3CCc4cc(O)ccc4[C@H]3CC[C@@]21C [Ethinylestradiol] | -4.78
Cc1nc2ccc(CN(C)c3ccc(C(=O)N[C@@H](CCC(=O)O)C(=O)O)s3)cc2c(=O)[nH]1 [Raltitrexed] | -7.48
Cc1cnc(Nc2ccc(F)cc2Cl)nc1-c1c[nH]c(C(=O)N[C@H](CO)c2cccc(Cl)c2)c1 | -5.13
CCN1CCN(c2ccc(Nc3cc(N(C)C(=O)Nc4c(Cl)c(OC)cc(OC)c4Cl)ncn3)cc2)CC1 [BGJ-398] | -4.58
NC(=O)Nc1sc(-c2ccc(F)cc2)cc1C(N)=O [TPCA-1] | -5.93

System: SB.msgc-1
Test: as above
Conditions: SB.msgc-1 (sporadic gastric cancer)
Outline: as §1

Structure (SMILES) | AC50 for growth inhibition (log10 M)
Cc1c(C(=O)Nc2cccc(C(F)(F)F)c2)cc(-c2ccccc2)n1CCCN1CCOCC1 | -4.83
c1ccc(CCCN2CCN(CCOC(c3ccccc3)c3ccccc3)CC2)cc1 | -4.68
CC[C@H](C)[N]1C=C(C)C2=C1C=C(C=C2C(=O)NC\C3=C(C)\C=C(\C)NC3=O)C4=CC=C(N=C4)N5CCNCC5 [GSK126] | -4.98
O=C1\C=C/C=C2/[C@H]3CNC[C@H](C3)CN12 [Cytisine] | -4.83
COc1cc([C@@H]2c3cc4c(cc3[C@@H](O[C@@H]3O[C@@H]5CO[C@@H](c6cccs6)O[C@H]5[C@H](O)[C@H]3O)[C@H]3COC(=O)[C@H]23)OCO4)cc(OC)c1O [Teniposide] | -6.03
COc1cc2c(Oc3ccc(NC(=O)C4(C(=O)Nc5ccc(F)cc5)CC4)cc3F)ccnc2cc1OCCCN1CCOCC1 [Foretinib] | -4.73
Cc1cc(Nc2nc(N[C@@H](C)c3ccc(F)cc3)c(C#N)cc2F)n[nH]1 [AZ-960] | -4.68
N#Cc1ccc(COC[C@H]2O[C@@H](n3c(NCc4ccc(Cl)c(Cl)c4)nc4c(N)ncnc43)[C@H](O)[C@@H]2O)cc1 | -5.08
O=C(Nc1cccc(Nc2ncc(Br)c(NCCc3cnc[nH]3)n2)c1)N1CCCC1 [BX-912] | -4.78
COc1cc2ncnc(Nc3cccc(Br)c3)c2cc1OC | -6.88
C[S+](=O)([O-])Oc1ccc2c(NC(N)=O)c(C(=O)c3ccc(Cl)cc3Cl)oc2c1 [Lirimilast] | -5.53
CN(CC(=O)N(Cc1ccc(C2CCCCC2)cc1)c1ccc(C(=O)O)c(O)c1)[S+](=O)([O-])c1c(F)c(F)c(F)c(F)c1F [BP-1-102] | -4.73
Cc1cc(C[S+](=O)([O-])c2ccccc2)cc(OCc2ccc(CN3CCC[C@@H]3CO)cc2)c1 [PF-543] | -4.83
CN(C)CCN1C(=O)c2cccc3cc(N)cc(c23)C1=O [Amonafide] | -5.08
N=C1S/C(=C\c2ccc(-c3ccc4c(c3)C(=O)NC4=O)o2)C(=O)N1c1ccc(Br)cc1 [Bioymifi] | -5.43
C#C[C@]1(O)CC[C@H]2[C@@H]3CCc4cc(O)ccc4[C@H]3CC[C@@]21C [Ethinylestradiol] | -4.83
Cc1nc2ccc(CN(C)c3ccc(C(=O)N[C@@H](CCC(=O)O)C(=O)O)s3)cc2c(=O)[nH]1 [Raltitrexed] | -7.28
Cc1cnc(Nc2ccc(F)cc2Cl)nc1-c1c[nH]c(C(=O)N[C@H](CO)c2cccc(Cl)c2)c1 | -4.73
CCN1CCN(c2ccc(Nc3cc(N(C)C(=O)Nc4c(Cl)c(OC)cc(OC)c4Cl)ncn3)cc2)CC1 [BGJ-398] | -4.73
NC(=O)Nc1sc(-c2ccc(F)cc2)cc1C(N)=O [TPCA-1] | -5.48
